Laboratory results as given in publication PMC12649549, “Sequence Permutation Generated Lysine and Tryptophan-Rich Antimicrobial Peptides with Enhanced Therapeutic Index” (Antibiotics, 2025).

Test: Calcein dye leakage assay, POPC:Cholesterol LUVs
Details: POPC:Cholesterol (2:1) LUVs, final peptide concentration 2 μg/mL; n = 3
Description: Large unilamellar vesicles (LUVs) containing POPC:LPS (12.5:1, mol/mol) and POPC:cholesterol (2:1, mol/mol) were prepared using the extrusion method and an Avanti small-volume extrusion apparatus(Avanti Polar Lipids). To prepare the vesicles, phospholipids were dissolved in a chloroform/methanol mixture (4:1, v/v), evaporated using nitrogen gas, and suspended in PBS buffer. The lipid suspensions underwent six to eight cycles of freezing and thawing before being extruded ten times through a […] pore size polycarbonate filter, followed by ten times through a […] filter. Calcein-filled LUVs were also prepared by loading calcein-containing buffer (70 mM calcein and 10 mM Tris at pH 7.4) into a Sephadex G-75 column loaded with iso-osmotic buffer (100 mM sodium chloride and 10 mM Tris) to remove unencapsulated calcein. The phospholipid content of the vesicles was determined by assessing inorganic phosphate using the ammonium ferrothiocyanate method described by John Charles Marshall Stewart.
Calcein leakage induced by peptides was measured using a Perkin-Elmer luminescence spectrofluorimeter with excitation and emission wavelengths of 496 and 515 nm, respectively. Calcein-entrapped LUVs were diluted to a concentration of 10 µM. The maximum degree of leakage was induced by 100 mg/mL Triton X-100.
The degree of leakage induced by various peptide concentrations was calculated using the formula: Leakage % = ((F − F0)/(Fr − F0)) × 100%, where F0 and Fr represent the initial fluorescence intensities observed without peptide and after adding 100 mg/mL Triton X-100, respectively.

Row | Substance | calcein leakage
1 | Ac-KKKKWRKWLKWLA-NH2 [Peptide W5K11] | above 60%
2 | Ac-KKKWRKWLKWLAK-NH2 [Peptide W5K12] | above 60%
3 | Ac-KKWRKWLKWLAKK-NH2 [W5K/A9W] | above 60%
4 | Ac-KWRKWLKWLAKKK-NH2 [Peptide W5K01] | above 60%
5 | Ac-WRKWLKWLAKKKK-NH2 [Peptide W5K02] | above 60%
